Results published in patent US10731187B2, “Recombinant strain producing O-aminobenzoate and fermentative production of aniline from renewable resources via 2-aminobenzoic acid” (Covestro Deutschland AG, priority 2014, dated 2020).
Converted amounts (≈) assume the structure as drawn.

How the values were obtained:
[1] = system: Corynebacterium glutamicum; assay: Shake flask growth (OD600) with supplementation of toxic substances; assay type: cell-based, Corynebacterium glutamicum DSM 20300 (=ATCC 13032)
Description: (§1) Several strains commonly used industrial biotechnology were investigated regarding their natural tolerance towards oAB and to organic solvents in question for later product extraction (e.g. 1-dodecanol or octanol). Furthermore, the influence of the used pH value was investigated. It was known from previous experiments that at least for E. coli the toxicity of aromatic compounds depends strongly on the pH value, probably because protonated acids can much more efficiently penetrate the cell membrane and accordingly their toxicity rises severely. The extraction of oAB in an organic phase is supposed to work best at low pH values, close to the isoelectric point of oAB. The most relevant host strains considered were: Escherichia coli K12, Corynebacterium glutamicum DSM 20300 (=ATCC 13032), Pseudomonas putida KT2440, Bacillus subtilis subsp. 168, Saccharomyces cerevisiae DSM 70449, and Pichia pastoris X33 (DSM 70382).
(§2) To investigate the chosen strains towards the mentioned characteristics shake flasks and small scale fermentation experiments were performed and the organisms were supplemented with the toxic substances (aminobenzoates, solvents) at differed concentrations, different pH values, and the behaviour of the strains was studied.
The organisms (commercially obtained from ordered from the DSMZ, German collection of Microorganisms and cell cultures, Braunschweig) were firstly cultivated in shake flasks and in each of them in suiting, published standard minimal medium in order to characterize their growth under standard cultivation conditions (C. glutamicum: Preculture: BHI medium (37 g/L; Brain-Heart-Infusion; Becton Dickenson and Company, Heidelberg); Main culture pH 7: CGXII-MOPS medium (42 g/L MOPS buffer, 20 g/L (NH4)2SO4, 5 g/L urea (Fisher Scientific, Schwerte), 1 g/L KH2PO4, 1 g/L K2HPO4, 0.25 g/L MgSO4.7H2O (Merck, Darmstadt), 0.01 g/L CaCl2, and 10 g/L glucose (autoclaved separately). The pH was adjusted to 7 with 5 mol/L sodium hydroxide solution. […]

B. subtilis = assay: as above; assay type: cell-based, Bacillus subtilis subsp. 168; settings: 3 g/L oAB, pH 7 (MOPS), 100-mL shake flask, 25 h
Description: as §1
as §2, with “studied. […]” for “studied.”

[2] = Solubility of AA in aniline; assay type: physicochemical
Description: Aniline is a much better solvent for AA than dodecanol and, being also the product of the decarboxylation, its use presented great advantages compared to 1-dodecanol.

[3] = Solubility of oAB in fermentation broth slurry; assay type: physicochemical; settings: fermentation broth of Corynebacterium glutamicum; room temperature, pH 4.5, fermentation broth
Protocol: An industrial sugar source was used for fermentation of Corynebacterium glutamicum. 100 ml of the broth with a content of 21.5 g/L glucose, 3.7 g/L lactate was mixed with 10 g anthranilic acid in a 250 ml laboratory reactor. […] Afterwards 9.12 g NaOH (32%) were added in 4 portions until a solution was present. […] Following […] HCl (37%) were added within 1 hour. By dosing of HCl first nucleation took place as from a pH-value of 5.8. The number of crystals increased during dosing. […] Afterwards the slurry was stirred for 1 hour. Finally the slurry was filtered.

## Nc1ccccc1C(=O)O [oAB, 2-aminobenzoic acid]
[1]; 3 g/L oAB, pH 7 (MOPS), 100-mL shake flask, 25 h
  growth (OD600): not inhibited
[1]; 5 g/L, pH 5 and pH 7, shake flask
  growth inhibition: No growth inhibition
[1]; Corynebacterium glutamicum ATCC13032
  tolerance for o-aminobenzoate: high tolerance
B. subtilis
  growth (OD600): strongly decreased
[2]; 50° C.
  AA that could be dissolved in aniline: up to 40%
[2]; 90° C.
  AA that could be dissolved in aniline: up to 50%
[2]; room temperature (20° C.)
  AA that could be dissolved in aniline: up to 30%
[3]
  solubility: ~4500 µg/mL (≈ 32.8 mM)
